In brackets after ≈: the same amount, converted by molar mass.
Assays:
[1] = MIC against ESKAPE pathogens, aerobic; type: cell-based; conditions: aerobic conditions, single concentration screen, n = 3; read-out: MIC ESKAPE bacteria
Description: All compounds were tested for activity against a set of anaerobic C. difficile bacteria (630 ATCC BAA-1382, NAP1/027 M7404, NAP1/027 ATCC BAA-1803, VPI10463 ATCC 43255, CD26A54_S and CD26A54_R) and representative ESKAPE pathogens S. aureus (MRSA ATCC 43300), E. coli (ATCC 25922), K. pneumoniae (ATCC 700603), A. baumannii (ATCC 19606) and P. aeruginosa (ATCC 27853) using a standard broth microdilution assay. Selected compounds were tested for activity against H. pylori strains (26695, and clinical isolates MtzS 13/25, MtzR 98/285 and MtzR 13/61) using agar plate dilution, and for antimicrobial activity against twelve Gram-positive bacterial strains: Enterococcus faecalis (VanA clinical isolate), Enterococcus faecium (MDR VanA ATCC 51559), Streptococcus pneumoniae (MDR ATCC 700677), S. aureus (MRSA ATCC 43300, MRSA clinical isolate, MRSA/DRSA clinical isolate, GISA NARSA NRS 1, GISA NARSA NRS 17, VRSA NARSA VRS1, VRSA NARSA VRS4 and VRSA NARSA VRS10) using broth microdilution. C. difficile strains were grown at 37 °C in a COY anaerobic chamber (5% H2, 10% CO2, 85% N2). H. pylori strains were grown at 37 °C under a microaerobic atmosphere (5% O2, 10% CO2). All facultative anaerobic bacteria were grown at 37 °C with normal atmospheric oxygen levels. […] Positive growth control of bacteria and DMSO as well as a negative control of only media were included for every plate. Full assay details are provided in the supplementary information.
MICs were determined by a two-fold serial broth micro dilution according to the recommendation of CLSI standards with an inoculum of 5 × 10^5 CFU/mL^4 The compounds along with standard antibiotics were serially diluted twofold across the wells of 96-well non-binding surface plates (NBS, Corning). […] Gram-positive and Gram-negative bacteria were cultured in Mueller Hinton broth (MHB) (Bacto laboratories, Cat. no. 211443) at 37 °C overnight. A sample of each culture was then diluted 40-fold in fresh MHB broth and incubated at 37 °C for 2-3 h. The resultant mid-log phase cultures were diluted to the final concentration of 5 × 10^5 CFU/mL, then 50 μL was added to each well of the compound containing 96-well plates. All the plates were covered and incubated at 37 °C for 24 h.

[2] = test system: C. difficile VPI10463 ATCC 43255; assay: MIC broth microdilution, C. difficile VPI 10463; type: cell-based, Clostridium difficile; conditions: VPI 10463, MtzS, 24 h, median of at least n = 4; for MIC: Clostridioides difficile, ATCC 43255 / ATCC BAA-1803
Description: All compounds were tested for activity against a set of anaerobic C. difficile bacteria (630 ATCC BAA-1382, NAP1/027 M7404, NAP1/027 ATCC BAA-1803, VPI10463 ATCC 43255, CD26A54_S and CD26A54_R) and representative ESKAPE pathogens S. aureus (MRSA ATCC 43300), E. coli (ATCC 25922), K. pneumoniae (ATCC 700603), A. baumannii (ATCC 19606) and P. aeruginosa (ATCC 27853) using a standard broth microdilution assay. Selected compounds were tested for activity against H. pylori strains (26695, and clinical isolates MtzS 13/25, MtzR 98/285 and MtzR 13/61) using agar plate dilution, and for antimicrobial activity against […] Gram-positive bacterial strains: Enterococcus faecalis (VanA clinical isolate), Enterococcus faecium (MDR VanA ATCC 51559), Streptococcus pneumoniae (MDR ATCC 700677), S. aureus (MRSA ATCC 43300, MRSA clinical isolate, MRSA/DRSA clinical isolate, GISA NARSA NRS 1, GISA NARSA NRS 17, VRSA NARSA VRS1, VRSA NARSA VRS4 and VRSA NARSA VRS10) using broth microdilution. C. difficile strains were grown at 37 °C in a COY anaerobic chamber (5% H2, 10% CO2, 85% N2). H. pylori strains were grown at 37 °C under a microaerobic atmosphere (5% O2, 10% CO2). All facultative anaerobic bacteria were grown at 37 °C with normal atmospheric oxygen levels. All experiments were performed in duplicate with metronidazole, vancomycin, linezolid or colistin as positive controls for relevant strains (see Table 1). Positive growth control of bacteria and DMSO as well as a negative control of only media were included for every plate. Full assay details are provided in the supplementary information.
C. difficile ATCC BAA-1382, ATCC BAA-1803, ATCC 43255 and M7404 heat shocked spore stocks (10 µL) were transferred into the anaerobic chamber and 10 µL streaked onto pre-reduced (at least 2.5 hr in anaerobic chamber) BHIS agar plates supplemented with 0.1% w/v sodium taurocholate (BHIS(TA)). Plates were incubated for 24 hours prior to assay to give colonies of size 1-3mm diameter with characteristic uneven borders.
The minimum inhibition concentration was determined according to the CLSI Methods with modifications in broth and inoculum for C. difficile according to Babakhani et al.^7,8 Briefly, compounds were prepared to 20X final concentration in 100% water, 60% DMSO and 40% water or 60% DMSO and 40% media. The compounds along with standard antibiotics were serially diluted two-fold across the wells of 96-well non-binding surface plates (Non binding surface, Corning). The plates were placed in the anaerobic chamber overnight to reduce. C. difficile bacteria from BHIS(TA) agar plates were cultured anaerobically in BHIS at 37 °C overnight. A sample of culture was then diluted 40-fold in BHIS broth and incubated at 37 °C for approximately 4.5 hrs. The resultant mid-log phase culture (OD600= 0.5-0.6) was diluted to the final concentration of ~1×10^6 CFU/mL, then 50 µL was added to each well of the compound-containing 96-well plates. This gave final cell concentration of 5×10^5 CFU/mL, final volume 100 µL and 3% maximum DMSO concentration. Compound concentration was typically from 64 to 0.03 µg/mL. An antibiotic standard was included on each 96 well plate as well as a positive growth control (no compound) and sterility control (no bacteria). All the plates were covered and incubated at 37 °C for 24 h. MICs were the lowest concentration showing no visible growth.

SMILES	MIC [1] [µg/mL]	MIC [2] [µg/mL]	MIC C. difficile VPI 10463 [2] [µg/mL]
Cc1ncc([N+](=O)[O-])n1CCO [Compound 1, metronidazole]	> 32	0.5 (≈ 2.92 µM)	–
Cc1ncc([N+](=O)[O-])n1CCN=[N+]=[N-] [Compound 3, 1-(2-azidoethyl)-2-methyl-5-nitro-1H-imidazole]	–	–	0.5 (≈ 2.55 µM)
Cc1ncc([N+](=O)[O-])n1CCn1cc(-c2ccccc2)nn1 [Compound 4a, 1-(2-(2-methyl-5-nitro-1H-imidazol-1-yl)ethyl)-4-phenyl-1H-1,2,3-triazole]	> 32	0.25 to 0.5 (≈ 0.838 to 1.68 µM)	–
COc1ccc(-c2cn(CCn3c([N+](=O)[O-])cnc3C)nn2)cc1 [Compound 4b, 1-(2-(2-methyl-5-nitro-1H-imidazol-1-yl)ethyl)-4-(4-methoxyphenyl)-1H-1,2,3-triazole]	> 32	0.25 to 0.5 (≈ 0.761 to 1.52 µM)	–
Cc1ncc([N+](=O)[O-])n1CCn1cc(-c2ccc(Cl)cc2)nn1 [Compound 4c, 1-(2-(2-methyl-5-nitro-1H-imidazol-1-yl)ethyl)-4-(4-chlorophenyl)-1H-1,2,3-triazole]	> 32	0.25 (≈ 0.751 µM)	–
Cc1ncc([N+](=O)[O-])n1CCn1cc(-c2ccc(Cl)c(Cl)c2)nn1 [Compound 4d, 1-(2-(2-methyl-5-nitro-1H-imidazol-1-yl)ethyl)-4-(3,4-dichlorophenyl)-1H-1,2,3-triazole]	> 32	0.5 to 1 (≈ 1.36 to 2.72 µM)	–
Cc1ccc(-c2cn(CCn3c([N+](=O)[O-])cnc3C)nn2)cc1 [Compound 4e, 1-(2-(2-methyl-5-nitro-1H-imidazol-1-yl)ethyl)-4-(p-tolyl)-1H-1,2,3-triazole]	> 32	0.25 (≈ 0.8 µM)	–
COC(=O)c1cn(CCn2c([N+](=O)[O-])cnc2C)nn1 [Compound 4f, 1-(2-(2-methyl-5-nitro-1H-imidazol-1-yl)ethyl)-4-(methoxycarbonyl)-1H-1,2,3-triazole]	> 32	1 (≈ 3.57 µM)	–
Cc1ncc([N+](=O)[O-])n1CCn1cc(Cn2cccn2)nn1 [Compound 4g, 1-(2-(2-methyl-5-nitro-1H-imidazol-1-yl)ethyl)-4-((1H-pyrazol-1-yl)methyl)-1H-1,2,3-triazole]	> 32	1 (≈ 3.31 µM)	–
Cc1ncc([N+](=O)[O-])n1CCn1cc(-c2ccccn2)nn1 [Compound 4h, 1-(2-(2-methyl-5-nitro-1H-imidazol-1-yl)ethyl)-4-(2-pyridinyl)-1H-1,2,3-triazole.xTFA]	> 32	0.5	–
Cc1ncc([N+](=O)[O-])n1CCn1cc(-c2cncnc2)nn1 [Compound 4i, 1-(2-(2-methyl-5-nitro-1H-imidazol-1-yl)ethyl)-4-(5-pyrimidinyl)-1H-1,2,3-triazole]	> 32	1 (≈ 3.33 µM)	–
Cc1ncc([N+](=O)[O-])n1CCn1cc(-c2ncccn2)nn1 [Compound 4j, 1-(2-(2-methyl-5-nitro-1H-imidazol-1-yl)ethyl)-4-(2-pyrimidinyl)-1H-1,2,3-triazole]	> 32	2 (≈ 6.66 µM)	–
Cc1ncc([N+](=O)[O-])n1CCn1cc(Cc2ccccc2)nn1 [Compound 4k, 1-(2-(2-methyl-5-nitro-1H-imidazol-1-yl)ethyl)-4-benzyl-1H-1,2,3-triazole]	> 32	0.25 to 0.5 (≈ 0.8 to 1.6 µM)	–
Cc1ncc([N+](=O)[O-])n1CCn1cc(C(O)c2ccccc2)nn1 (stereo not shown) [Compound 4l, 1-(2-(2-methyl-5-nitro-1H-imidazol-1-yl)ethyl)-4-(1-phenyl-1-hydroxylmethyl)-1H-1,2,3-triazole]	> 32	0.5 (≈ 1.52 µM)	–
Cc1ncc([N+](=O)[O-])n1CCn1cc(CN(C)Cc2ccccc2)nn1 [Compound 4m, 1-(2-(2-methyl-5-nitro-1H-imidazol-1-yl)ethyl)-4-(N-benzyl, N-methylaminomethyl)-1H-1,2,3-triazole]	> 32	1 to 2 (≈ 2.81 to 5.63 µM)	–
Cc1ncc([N+](=O)[O-])n1CCn1cc(-c2ccsc2)nn1 [Compound 4n, 1-(2-(2-methyl-5-nitro-1H-imidazol-1-yl)ethyl)-4-(thiophen-3-yl)-1H-1,2,3-triazole]	> 32	0.25 to 0.5 (≈ 0.821 to 1.64 µM)	–
Cc1ncc([N+](=O)[O-])n1CCn1cc(CN2CCS(=O)(=O)CC2)nn1 [Compound 4o, 1-(2-(2-methyl-5-nitro-1H-imidazol-1-yl)ethyl)-4-((1,1-dioxothiomorpholin-4-yl)methyl)-1H-1,2,3-triazole]	> 32	> 64	–
Cc1ncc([N+](=O)[O-])n1CCn1cc(CCO)nn1 [Compound 4p, 1-(2-(2-methyl-5-nitro-1H-imidazol-1-yl)ethyl)-4-(2-hydroxyethyl)-1H-1,2,3-triazole]	> 32	8 (≈ 30 µM)	–
Cc1ncc([N+](=O)[O-])n1CCn1cc(CO)nn1 [Compound 4q, 1-(2-(2-methyl-5-nitro-1H-imidazol-1-yl)ethyl)-4-(hydroxymethyl)-1H-1,2,3-triazole]	> 32	16 (≈ 63.4 µM)	–
Cc1ncc([N+](=O)[O-])n1CCn1cc(CCC(=O)O)nn1 [Compound 4r, sodium 1-(2-(2-methyl-5-nitro-1H-imidazol-1-yl)ethyl)-4-(carboxyethyl)-1H-1,2,3-triazole]	> 32	> 64	–
Cc1ncc([N+](=O)[O-])n1CCn1cc(C(=O)O)nn1 [Compound 4s, 1-(2-(2-methyl-5-nitro-1H-imidazol-1-yl)ethyl)-4-(carboxy)-1H-1,2,3-triazole]	> 32	64 (≈ 240 µM)	–
Cc1ncc([N+](=O)[O-])n1CCn1cc(CN)nn1.O=C(O)C(F)(F)F [Compound 4t, 1-(2-(2-methyl-5-nitro-1H-imidazol-1-yl)ethyl)-4-(aminomethyl)-1H-1,2,3-triazole trifluoroacetate salt]	> 32	> 64	–
